Data from BigSolDB 2.1.

COc1ccccc1OCCNCC(O)COc1cccc2[nH]c3ccccc3c12 (stereo not drawn)
solubility (mole fraction)
Conditions	278.15 K	283.15 K	288.15 K	293.15 K	298.15 K	303.15 K	308.15 K	313.15 K
in THF	0.00043	0.00061	0.00085	0.00118	0.00167	0.00227	0.00302	0.004
in acetone	0.00064	0.00088	0.00117	0.00154	0.0021	0.00268	0.00354	0.0046
in ethanol	0.00062	0.00085	0.00112	0.00143	0.00185	0.00246	0.00306	0.00389
in ethyl acetate	0.00063	0.00086	0.00146	0.00187	0.0024	0.00294	0.00371	0.00424
in methanol	0.00063	0.00087	0.00114	0.0015	0.00201	0.00256	0.00329	0.00419
in water	0.0196	0.0232	0.0278	0.033	0.0398	0.0468	0.0552	0.0641
